According to US10106538B2, “Inhibitors of protein kinases” (PRINCETON DRUG DISCOVERY INC, priority 2015, dated 2018):

Columns and labels:
[1] = biological target: T1, BRAF (Homo sapiens, UniProt P15056); experiment: Off-chip Mobility Shift Assay (MSA) kinase inhibition; assay type: biochemical; conditions: inhibitor concentration 0.01 μM; 0.01 µM
T1 construct: purchased Carna Biosciences
Method: (§1) Off-chip Mobility Shift Assay (MSA) by Cama Biosciences, Inc (Natick, Mass.) a used for measuring the kinase activity and inhibition. • 1) The 5 μL of x4 compound solution, 5 μL of x4 Substrate/ATP/Metal solution, and 10 μL of x2 kinase solution were prepared with assay buffer (20 mM HEPES, 0.01% Triton X100, 2 mM DTT, pH 7.5) and mixed and incubated in a well of polypropylene 384 well microplate for 1 or 5 hour(s)* at room temperature.

[2] = biological target: T2, FGR (Homo sapiens, UniProt P09769); experiment: as above; assay type: biochemical; conditions: for inhibition at 0.1 µM: inhibitor concentration 0.1 μM
T2 construct: purchased Carna Biosciences
T2 sequence (P09769 whole entry): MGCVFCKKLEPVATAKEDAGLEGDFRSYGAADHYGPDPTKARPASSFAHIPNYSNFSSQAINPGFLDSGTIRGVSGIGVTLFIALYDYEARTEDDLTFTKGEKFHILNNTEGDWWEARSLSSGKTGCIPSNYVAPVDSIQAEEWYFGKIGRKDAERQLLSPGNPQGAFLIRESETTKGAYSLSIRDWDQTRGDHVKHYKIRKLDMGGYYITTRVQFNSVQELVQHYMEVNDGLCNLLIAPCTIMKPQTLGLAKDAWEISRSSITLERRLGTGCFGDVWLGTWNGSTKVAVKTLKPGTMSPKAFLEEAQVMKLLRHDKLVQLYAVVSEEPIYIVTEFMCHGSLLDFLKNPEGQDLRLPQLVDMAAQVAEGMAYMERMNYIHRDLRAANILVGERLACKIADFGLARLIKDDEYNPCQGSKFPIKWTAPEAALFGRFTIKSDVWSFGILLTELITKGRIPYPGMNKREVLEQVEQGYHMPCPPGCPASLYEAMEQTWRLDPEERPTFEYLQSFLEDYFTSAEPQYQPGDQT
Method: as §1

[3] = biological target: T3, KIT (Homo sapiens, UniProt P10721); experiment: as above; assay type: biochemical; conditions: for inhibition at 0.1 µM: inhibitor concentration 0.1 μM
T3 construct: purchased Carna Biosciences
T3 sequence (P10721 26-976): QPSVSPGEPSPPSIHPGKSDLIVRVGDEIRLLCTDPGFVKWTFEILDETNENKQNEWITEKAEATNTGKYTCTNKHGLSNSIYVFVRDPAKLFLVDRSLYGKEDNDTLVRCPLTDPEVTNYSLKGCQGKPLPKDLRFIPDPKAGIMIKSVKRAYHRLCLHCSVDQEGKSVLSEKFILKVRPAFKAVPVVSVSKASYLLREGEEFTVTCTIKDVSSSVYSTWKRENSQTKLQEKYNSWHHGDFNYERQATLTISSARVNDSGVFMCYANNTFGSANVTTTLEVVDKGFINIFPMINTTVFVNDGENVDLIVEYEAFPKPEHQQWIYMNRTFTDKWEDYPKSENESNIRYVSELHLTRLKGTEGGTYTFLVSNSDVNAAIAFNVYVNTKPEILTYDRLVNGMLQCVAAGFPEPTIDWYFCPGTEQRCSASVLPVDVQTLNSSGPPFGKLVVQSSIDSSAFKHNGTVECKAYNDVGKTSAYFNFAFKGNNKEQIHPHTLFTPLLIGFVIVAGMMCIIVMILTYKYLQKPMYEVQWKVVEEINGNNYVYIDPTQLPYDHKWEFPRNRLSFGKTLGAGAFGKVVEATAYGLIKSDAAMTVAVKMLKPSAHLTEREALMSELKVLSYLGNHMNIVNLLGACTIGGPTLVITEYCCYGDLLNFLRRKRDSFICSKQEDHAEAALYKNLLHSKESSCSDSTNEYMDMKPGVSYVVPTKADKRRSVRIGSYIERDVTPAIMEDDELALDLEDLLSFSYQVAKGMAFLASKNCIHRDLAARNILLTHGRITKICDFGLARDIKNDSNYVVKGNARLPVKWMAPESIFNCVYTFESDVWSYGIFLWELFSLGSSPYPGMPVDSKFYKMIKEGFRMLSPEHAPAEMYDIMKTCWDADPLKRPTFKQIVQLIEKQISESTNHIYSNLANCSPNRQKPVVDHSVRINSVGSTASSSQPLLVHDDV
Method: as §1

[4] = biological target: T4, KIT(D816V) (Homo sapiens, UniProt P10721, D816V); experiment: as above; assay type: biochemical; conditions: for inhibition at 0.1 µM: inhibitor concentration 0.1 μM
T4 construct: purchased Carna Biosciences
T4 sequence (P10721 26-976 D816V): as the sequence (P10721 26-976) above, with D791V counted along it
Method: as §1

[5] = biological target: T5, KIT(T670I) (Homo sapiens, UniProt P10721, T670I); experiment: as above; assay type: biochemical; conditions: for inhibition at 0.1 µM: inhibitor concentration 0.1 μM
T5 construct: purchased Carna Biosciences
T5 sequence (P10721 26-976 T670I): as the sequence (P10721 26-976) above, with T645I counted along it
Method: as §1

[6] = biological target: T6, LCK (Homo sapiens, UniProt P06239); experiment: as above; assay type: biochemical; conditions: for inhibition at 0.1 µM: inhibitor concentration 0.1 μM
T6 construct: purchased Carna Biosciences
T6 sequence (P06239 whole entry): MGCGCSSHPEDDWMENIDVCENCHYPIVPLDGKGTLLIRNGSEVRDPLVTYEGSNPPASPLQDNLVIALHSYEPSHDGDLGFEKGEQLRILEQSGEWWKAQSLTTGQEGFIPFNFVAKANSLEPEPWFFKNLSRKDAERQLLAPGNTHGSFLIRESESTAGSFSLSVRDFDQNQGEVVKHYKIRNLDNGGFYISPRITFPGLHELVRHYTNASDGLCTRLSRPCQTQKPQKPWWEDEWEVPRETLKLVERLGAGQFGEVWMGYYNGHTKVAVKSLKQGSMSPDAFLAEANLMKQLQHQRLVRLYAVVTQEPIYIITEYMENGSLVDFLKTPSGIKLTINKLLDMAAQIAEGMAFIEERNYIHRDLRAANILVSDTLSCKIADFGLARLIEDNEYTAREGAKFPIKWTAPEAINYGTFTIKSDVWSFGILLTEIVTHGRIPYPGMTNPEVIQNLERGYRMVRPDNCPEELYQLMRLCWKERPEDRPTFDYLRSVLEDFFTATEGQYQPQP
Method: as §1

[7] = biological target: T7, RAF1 (Homo sapiens, UniProt P04049); experiment: as above; assay type: biochemical; conditions: for inhibition at 0.1 µM: inhibitor concentration 0.1 μM
T7 construct: purchased Carna Biosciences
T7 sequence (P04049 whole entry): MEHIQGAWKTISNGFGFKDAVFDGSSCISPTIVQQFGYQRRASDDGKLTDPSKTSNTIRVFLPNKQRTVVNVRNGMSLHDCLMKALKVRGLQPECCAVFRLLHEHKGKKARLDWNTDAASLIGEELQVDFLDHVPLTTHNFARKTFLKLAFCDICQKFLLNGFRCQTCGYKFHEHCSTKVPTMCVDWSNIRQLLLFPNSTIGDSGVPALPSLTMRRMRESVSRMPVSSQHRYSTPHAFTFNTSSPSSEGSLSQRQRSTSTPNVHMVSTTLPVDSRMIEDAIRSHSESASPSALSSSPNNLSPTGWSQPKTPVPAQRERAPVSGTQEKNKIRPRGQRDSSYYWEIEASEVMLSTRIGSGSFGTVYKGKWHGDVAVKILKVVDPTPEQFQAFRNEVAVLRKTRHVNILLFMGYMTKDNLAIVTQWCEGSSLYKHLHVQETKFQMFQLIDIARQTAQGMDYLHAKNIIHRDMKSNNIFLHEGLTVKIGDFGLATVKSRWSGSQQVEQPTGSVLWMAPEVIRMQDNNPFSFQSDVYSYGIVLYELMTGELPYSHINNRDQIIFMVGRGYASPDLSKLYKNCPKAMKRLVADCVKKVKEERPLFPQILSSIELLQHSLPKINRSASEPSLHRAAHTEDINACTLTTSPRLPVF
Method: as §1

[8] = biological target: T8, SRM (Homo sapiens, UniProt Q9H3Y6); experiment: as above; assay type: biochemical; conditions: for inhibition at 0.1 µM: inhibitor concentration 0.1 μM
T8 construct: purchased Carna Biosciences
T8 sequence (Q9H3Y6 whole entry): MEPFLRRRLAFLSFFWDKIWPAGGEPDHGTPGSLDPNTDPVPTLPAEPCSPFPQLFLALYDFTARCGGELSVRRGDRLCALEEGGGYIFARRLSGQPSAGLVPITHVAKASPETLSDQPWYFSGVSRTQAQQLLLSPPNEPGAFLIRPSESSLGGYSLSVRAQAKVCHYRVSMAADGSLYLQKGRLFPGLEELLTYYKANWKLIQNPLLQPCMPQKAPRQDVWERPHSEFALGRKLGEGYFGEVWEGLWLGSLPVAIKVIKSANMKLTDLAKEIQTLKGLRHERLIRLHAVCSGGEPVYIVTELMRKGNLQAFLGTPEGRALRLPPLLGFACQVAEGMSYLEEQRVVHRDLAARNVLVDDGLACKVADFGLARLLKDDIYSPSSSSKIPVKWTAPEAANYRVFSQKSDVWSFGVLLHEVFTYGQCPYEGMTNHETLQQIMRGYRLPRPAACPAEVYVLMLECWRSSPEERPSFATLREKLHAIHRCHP
Method: as §1

[9] = tested on: breast cancer cell line T-47D; experiment: Cell growth assay with breast cancer cell line T-47D; assay type: cell-based; conditions: Homo sapiens, T47D, 72 h, T-47D cells, PrestoBlue Cell Viability reagent, read-out: IC50 inhibition of cell growth
Method: […] of the complete medium was then gently dispersed over the surface of the cell layer for several times. The cell concentration was adjusted to 1×10^4 cells/mL with the complete medium. A 100 μL aliquot of the cell suspension was added to the well of a 96-well plate, and the plate was incubated overnight at 37° C. under 5% CO2 with saturated humidity. On the next day, the medium in each well was aspirated and replaced with a 100 μL aliquot of pre-warmed complete medium at 37° C. in the presence or absence of the test compounds at various concentrations from 0-100 μM. The test compounds were dissolved in DMSO, and the final DMSO concentration in the cell culture was no more than 1%. The plate was incubated for 72 hours at 37° C. under 5% CO2 with saturated humidity. At end of the cell culture a 10 μL aliquot of PrestoBlue® Cell Viability reagent (ThermoFisher Scientific) was added into the well and the plate was incubated at 37° C. for 30 min. The absorption at 570 and 600 nm were measured with a SpectraMax Microplate reader (Molecular Devices), The absorbance at […] was normalized to that at 600 nm.

[10] = biological target: T9, ABL(E255K) (Homo sapiens, UniProt P00519, E255K); experiment: Off-chip Mobility Shift Assay (MSA) kinase inhibition; assay type: biochemical; conditions: inhibitor concentration 0.1 μM
T9 construct: purchased Carna Biosciences
Method: as §1

[11] = biological target: T10, AKT3 (Homo sapiens, UniProt Q9Y243); experiment: as above; assay type: biochemical; conditions: inhibitor concentration 0.1 μM
T10 construct: purchased Carna Biosciences
T10 sequence (Q9Y243 whole entry): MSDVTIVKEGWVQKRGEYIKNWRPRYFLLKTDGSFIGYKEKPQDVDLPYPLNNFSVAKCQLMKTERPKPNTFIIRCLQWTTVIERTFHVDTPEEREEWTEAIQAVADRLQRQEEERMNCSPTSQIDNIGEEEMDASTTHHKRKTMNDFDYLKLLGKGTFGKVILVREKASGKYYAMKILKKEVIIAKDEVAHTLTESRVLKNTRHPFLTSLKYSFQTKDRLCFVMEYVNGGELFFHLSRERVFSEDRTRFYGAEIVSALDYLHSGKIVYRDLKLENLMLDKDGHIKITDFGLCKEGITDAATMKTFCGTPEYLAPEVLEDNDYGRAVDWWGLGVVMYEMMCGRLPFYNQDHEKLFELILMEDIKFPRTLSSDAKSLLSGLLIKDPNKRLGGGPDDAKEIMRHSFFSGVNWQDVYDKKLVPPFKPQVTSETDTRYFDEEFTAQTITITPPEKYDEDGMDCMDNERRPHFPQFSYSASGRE
Method: as §1

[12] = biological target: T11, AurA (Homo sapiens, UniProt O14965); experiment: as above; assay type: biochemical; conditions: inhibitor concentration 0.1 μM
T11 construct: purchased Carna Biosciences
T11 sequence (O14965 1-403): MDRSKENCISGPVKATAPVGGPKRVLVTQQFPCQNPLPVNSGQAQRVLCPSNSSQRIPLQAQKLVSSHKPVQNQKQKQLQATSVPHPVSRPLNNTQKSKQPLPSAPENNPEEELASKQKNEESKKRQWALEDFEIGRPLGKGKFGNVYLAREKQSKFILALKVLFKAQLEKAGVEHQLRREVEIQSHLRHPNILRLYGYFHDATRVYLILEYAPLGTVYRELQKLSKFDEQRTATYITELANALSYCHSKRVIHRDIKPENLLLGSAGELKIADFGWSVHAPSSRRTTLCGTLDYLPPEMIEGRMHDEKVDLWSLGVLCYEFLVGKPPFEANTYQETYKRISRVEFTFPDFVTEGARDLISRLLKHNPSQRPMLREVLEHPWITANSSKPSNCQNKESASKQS
Method: as §1

[13] = biological target: T12, BTK (Homo sapiens, UniProt Q06187); experiment: as above; assay type: biochemical; conditions: inhibitor concentration 0.1 μM
T12 construct: purchased Carna Biosciences
Method: as §1

[14] = biological target: T13, EGFR (Homo sapiens, UniProt P00533); experiment: as above; assay type: biochemical; conditions: inhibitor concentration 0.1 μM
T13 construct: purchased Carna Biosciences
Method: as §1

[15] = biological target: T14, FAK (Homo sapiens, UniProt Q05397); experiment: as above; assay type: biochemical; conditions: inhibitor concentration 0.1 μM
T14 construct: purchased Carna Biosciences, Inc
T14 sequence (Q05397 whole entry): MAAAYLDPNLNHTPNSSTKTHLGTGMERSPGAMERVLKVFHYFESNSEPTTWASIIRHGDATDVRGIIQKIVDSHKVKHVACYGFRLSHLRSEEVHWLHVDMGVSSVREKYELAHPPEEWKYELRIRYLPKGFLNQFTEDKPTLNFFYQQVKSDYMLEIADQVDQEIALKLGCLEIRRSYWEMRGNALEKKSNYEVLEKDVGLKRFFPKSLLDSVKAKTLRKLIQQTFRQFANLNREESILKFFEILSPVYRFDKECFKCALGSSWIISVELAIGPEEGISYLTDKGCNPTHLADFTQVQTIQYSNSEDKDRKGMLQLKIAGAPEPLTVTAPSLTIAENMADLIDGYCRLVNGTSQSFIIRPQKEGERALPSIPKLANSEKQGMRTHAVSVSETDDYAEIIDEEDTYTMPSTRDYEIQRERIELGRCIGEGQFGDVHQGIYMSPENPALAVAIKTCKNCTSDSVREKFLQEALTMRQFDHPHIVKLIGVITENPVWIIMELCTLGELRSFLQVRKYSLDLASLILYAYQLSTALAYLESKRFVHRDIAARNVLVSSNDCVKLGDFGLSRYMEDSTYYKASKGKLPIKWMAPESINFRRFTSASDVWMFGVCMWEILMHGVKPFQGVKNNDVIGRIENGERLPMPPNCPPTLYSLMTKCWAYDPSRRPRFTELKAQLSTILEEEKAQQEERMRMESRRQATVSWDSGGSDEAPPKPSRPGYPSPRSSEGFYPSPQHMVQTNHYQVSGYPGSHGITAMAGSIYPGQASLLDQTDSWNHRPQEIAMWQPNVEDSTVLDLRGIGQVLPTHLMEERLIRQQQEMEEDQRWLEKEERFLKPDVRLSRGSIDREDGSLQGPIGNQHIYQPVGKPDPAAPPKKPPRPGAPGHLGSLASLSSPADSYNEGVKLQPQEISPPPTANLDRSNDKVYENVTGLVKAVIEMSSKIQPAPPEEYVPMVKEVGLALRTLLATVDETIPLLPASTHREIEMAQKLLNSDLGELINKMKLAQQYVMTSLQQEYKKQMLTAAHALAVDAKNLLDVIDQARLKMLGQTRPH
Method: as §1

[16] = biological target: T15, FGFR2 (Homo sapiens, UniProt P21802); experiment: as above; assay type: biochemical; conditions: inhibitor concentration 0.1 μM
T15 construct: purchased Carna Biosciences
Method: as §1

[17] = biological target: T16, FGFR3 (Homo sapiens, UniProt P22607); experiment: as above; assay type: biochemical; conditions: inhibitor concentration 0.1 μM
T16 construct: purchased Carna Biosciences
Method: as §1

[18] = biological target: T17, IGF1R (Homo sapiens, UniProt P08069); experiment: as above; assay type: biochemical; conditions: inhibitor concentration 0.1 μM
T17 construct: purchased Carna Biosciences
Method: as §1

[19] = biological target: T18, JNK2 (Homo sapiens, UniProt P45984); experiment: as above; assay type: biochemical; conditions: inhibitor concentration 0.1 μM
T18 construct: purchased Carna Biosciences
Method: as §1

[20] = biological target: T19, JNK3 (Homo sapiens, UniProt P53779); experiment: as above; assay type: biochemical; conditions: inhibitor concentration 0.1 μM
T19 construct: purchased Carna Biosciences, Inc
Method: as §1

[21] = biological target: T20, LYNb (Homo sapiens, UniProt P07948); experiment: as above; assay type: biochemical; conditions: inhibitor concentration 0.1 μM
T20 construct: purchased Carna Biosciences
Method: as §1

[22] = biological target: T21, MAP2K2 (Homo sapiens, UniProt P36507); experiment: as above; assay type: biochemical; conditions: inhibitor concentration 0.1 μM
T21 construct: purchased Carna Biosciences
Method: as §1

[23] = biological target: T22, MET (Homo sapiens, UniProt P08581); experiment: as above; assay type: biochemical; conditions: inhibitor concentration 0.1 μM
T22 construct: purchased Carna Biosciences
Method: as §1

[24] = biological target: T23, MLK1 (Homo sapiens, UniProt P80192); experiment: as above; assay type: biochemical; conditions: inhibitor concentration 0.1 μM
T23 construct: purchased Carna Biosciences
Method: as §1

[25] = biological target: T24, MNK1 (Homo sapiens, UniProt Q9BUB5); experiment: as above; assay type: biochemical; conditions: inhibitor concentration 0.1 μM
T24 construct: purchased Carna Biosciences
Method: as §1

[26] = biological target: T25, PKACα (Homo sapiens, UniProt P17612); experiment: as above; assay type: biochemical; conditions: inhibitor concentration 0.1 μM
T25 construct: purchased Carna Biosciences, Inc
Method: as §1

[27] = biological target: T26, RON (Homo sapiens, UniProt Q04912); experiment: as above; assay type: biochemical; conditions: inhibitor concentration 0.1 μM
T26 construct: purchased Carna Biosciences
Method: as §1

[28] = inhibitor concentration 0.01 μM, 0.01 µM

## C/C=C/S(=O)(=O)Nc1ccc(F)c(C(=O)c2c[nH]c3ncc(-c4ccc(Cl)cc4)cc23)c1F [200-93b]
[1]
  BRAF inhibition: <20%
[2]; [28]
  FGR inhibition: >20%
[3]; [28]
  KIT inhibition: <20%
[4]; [28]
  KIT(D816V) inhibition: <20%
[5]; [28]
  KIT(T670I) inhibition: <20%
[6]; [28]
  LCK inhibition: >20%
[7]; [28]
  RAF1 inhibition: >20%
[8]; [28]
  SRM inhibition: >20%
[9]
  IC50: < 20 µM

## CC(O)CS(=O)(=O)Nc1ccc(F)c(C(=O)c2c[nH]c3ncc(-c4ccc(Cl)cc4)cc23)c1F (centres unmarked) [200-115]
[10]
  inhibition at 0.1 µM: < 30%
[11]
  inhibition at 0.1 µM: < 30%
[12]
  inhibition at 0.1 µM: < 30%
[13]
  inhibition at 0.1 µM: < 30%
[14]
  inhibition at 0.1 µM: < 30%
[15]
  inhibition at 0.1 µM: < 30%
[16]
  inhibition at 0.1 µM: < 30%
[17]
  inhibition at 0.1 µM: < 30%
[2]
  inhibition at 0.1 µM: > 30%
[18]
  inhibition at 0.1 µM: < 30%
[19]
  inhibition at 0.1 µM: < 30%
[20]
  inhibition at 0.1 µM: < 30%
[3]
  inhibition at 0.1 µM: < 30%
[4]
  inhibition at 0.1 µM: < 30%
[5]
  inhibition at 0.1 µM: < 30%
[6]
  inhibition at 0.1 µM: > 30%
[21]
  inhibition at 0.1 µM: < 30%
[22]
  inhibition at 0.1 µM: < 30%
[23]
  inhibition at 0.1 µM: < 30%
[24]
  inhibition at 0.1 µM: < 30%
[25]
  inhibition at 0.1 µM: < 30%
[26]
  inhibition at 0.1 µM: < 30%
[7]
  inhibition at 0.1 µM: > 30%
[27]
  inhibition at 0.1 µM: < 30%
[8]
  inhibition at 0.1 µM: > 30%

## CC(=O)CS(=O)(=O)Nc1ccc(F)c(C(=O)c2c[nH]c3ncc(-c4ccc(Cl)cc4)cc23)c1F [200-117]
[10]
  inhibition at 0.1 µM: < 30%
[11]
  inhibition at 0.1 µM: < 30%
[12]
  inhibition at 0.1 µM: < 30%
[13]
  inhibition at 0.1 µM: < 30%
[14]
  inhibition at 0.1 µM: < 30%
[15]
  inhibition at 0.1 µM: < 30%
[16]
  inhibition at 0.1 µM: < 30%
[17]
  inhibition at 0.1 µM: < 30%
[2]
  inhibition at 0.1 µM: > 30%
[18]
  inhibition at 0.1 µM: < 30%
[19]
  inhibition at 0.1 µM: < 30%
[20]
  inhibition at 0.1 µM: < 30%
[3]
  inhibition at 0.1 µM: < 30%
[4]
  inhibition at 0.1 µM: < 30%
[5]
  inhibition at 0.1 µM: < 30%
[6]
  inhibition at 0.1 µM: > 30%
[21]
  inhibition at 0.1 µM: > 30%
[22]
  inhibition at 0.1 µM: < 30%
[23]
  inhibition at 0.1 µM: < 30%
[24]
  inhibition at 0.1 µM: < 30%
[25]
  inhibition at 0.1 µM: < 30%
[26]
  inhibition at 0.1 µM: < 30%
[7]
  inhibition at 0.1 µM: > 30%
[27]
  inhibition at 0.1 µM: < 30%
[8]
  inhibition at 0.1 µM: > 30%
